Measurements: patent US8716228B2, “GPR54 agonists or antagonists for treatment of diseases presenting behavioral abnormalities” (YEDA Research and Development Co. Ltd., priority 2009, dated 2014)

Experiments:
Type in all cases: in vivo, mouse
SCID mice = test: Prepulse inhibition (PPI) in SCID mice; conditions: adult (12 week old) SCID mice, i.p. 100 μl of 100 μM, 30 minutes prior to PPI testing, vs PBS
Procedure: Prepulse Inhibition (PPI). PPI testing was performed within startle chambers purchased from Med Associates Inc (Med Associates, St. Albans, Vt., USA). PPI was analyzed as described previously (Kipnis et al., 2004). Briefly, during a period of acclimation, a 65-dB background noise was applied for 5-min, and continued throughout the test session. All sessions for testing of PPI consisted of startle trials (pulse alone, 40-ms, 120-dB), prepulse trials (prepulse 20-ms, 69, 73, 78, or 81 dB followed by a (100-ms delay) pulse), and no-stimulus trials. All sessions were presented in pseudo-random order. The average time between trials was 15 s (range 12-30 s). PPI was calculated as: % PPI=100−{[(startle response for prepulse+pulse)/(startle response for pulse-alone)]×100}. In all the experiments, there were no significant differences between groups in trials of startle reactivity to pulse alone, and in no-stimulation trials. […]
To confirm this possibility we examined whether injection of kisspeptin can restore the abnormal PPI in SCID mice to the normal level in wild-type mice. We analyzed the PPI in adult (12 week old) wild-type mice and, in SCID mice that were injected IP with 100 μl of 100 μM Kp-10 (SEQ ID NO:3), 30 minutes prior to PPI testing. […]

naive mice = test: Tail suspension test; conditions: 100 μl of 100 μM, vs PBS
Procedure: Tail suspension test. The tail suspension apparatus was made of horizontal metal rod supported by a stand. Each mouse was suspended from its tail using adhesive tape, suspending each mouse individually. The immobility time was measured during a 6 min observation period, latency to first immobility and total immobility was calculated (FIG. 10A).
The results we presented above using the PPI paradigm only relate to the psychotic symptoms of schizophrenia. However, schizophrenia patients suffer from cognitive and negative symptoms as well (i.e depression). […] To address whether Kp-10 has an antidepressant potency we studied its effect in the tail suspension test, an established method for screening antidepressant-like activity in mice (Steru et al., 1985; Cryan et al., 2005). Naïve mice were treated with Kp-10 (SEQ ID NO:3; 100 μl of 100 μM) or PBS and were subjected to the tail suspension test, in which the mouse is suspended by the tail from a lever, and the movements of the animal are recorded (FIG. 10A). The latency to the first immobility was longer and the duration of the total immobility was shorter in the Kp-10 treated mice compared to PBS treated mice (FIGS. 10B-10C).

BDNF = test: qPCR of BDNF transcripts in hippocampus; conditions: mRNA, offspring of poly I:C treated dams treated at 8 weeks with Kp-10 or PBS
Procedure: RNA purification, cDNA synthesis, reverse transcription PCR, and real-time quantitative PCR analysis. For RNA expression analysis, cells from whole hippocampi were extracted with TRI Reagent (MRC, Cincinnati, Ohio), and total cellular RNA was purified from the lysates using the RNeasy kit (Qiagen, Hilden, Germany). RNA (1 μg) was converted to cDNA using SuperScript II (Promega, Madison, Wis.). The amplification cycle was 95° C. for 5 s, 60° C. for 20 s, and 72° C. for 15 s.
The following primers were used: […]
To understand what is the mechanism behind the prophylactic treatment of Kp-10 we examined the expression of total brain-derived neurotrophic factor (BDNF) and its exon transcripts 1-4 according to Zajac et al. (2010). […] Recently, association between a BDNF variant and childhood-onset mood disorder was established (Strauss et al., 2005). Therefore, we studied mRNA expression of a few BDNF transcripts in the hippocampus of offspring of PBS treated dams (n=5) compared to offspring of poly I:C treated dams, which were treated at 8 weeks with either Kp-10 (n=6) or PBS (n=6) (Table 3). […] Treatment with Kp-10 at 8 weeks of age induced an increase in the expression of BDNF1 transcript to the normal level (Table 3(ii)). […] In addition, no significant difference was found between the groups in the expression of BDNF transcripts 3 and 4 (Table 3(iv and v)). […] The involvement of BDNF in schizophrenia and its effect on PPI levels are still a debate. Our observations of changes in expression of selective forms of BDNF might explain this apparent dichotomy.

Q: Which PPI (SCID mice) does the source give for YNWNSFGLRF—NH2 [Kp-10] here?
A: restored the PPI of SCID mice back to the normal level

Q: And the “duration of the total immobility” value (naive mice)?
A: shorter

Q: And the “latency to the first immobility” value (naive mice)?
A: longer

Q: What about the “Expression of BDNF1 transcript” value (BDNF) of the same substance?
A: *2.2 ± 0.5

Q: What about the “Expression of BDNF2 transcript” value (BDNF) of the same substance?
A: ^#6.7 ± 1 ^

Q: And the “Expression of BDNF3 transcript” value (BDNF)?
A: 8 ± 3

Q: And the “Expression of BDNF4 transcript” value (BDNF)?
A: 9 ± 2

Q: And the “Expression of BDNF transcript (total BDNF)” value (BDNF)?
A: 2.4 ± 0.5
